Legend:
Male CD1 mice = assay: Carrageenan-induced hind paw swelling; assay type: in vivo; settings: UBE injected thirty minutes before carrageenan; swelling after 3 hours versus prior to carrageenan; FIG. 1
Protocol: Male CD1 mice were intravenously (i.v.) injected with the indicated doses of the UBE polypeptide having the sequence […] (SEQ ID NO:2). Thirty minutes thereafter, each animal was injected with carrageenan (50 μl of 3 mg/ml into each hindpaw). The animals were evaluated for the difference between the degree of swelling (mm) after 3 hours and prior to carrageenan injection.

Female C57BL/6 mice = assay: Experimental autoimmune encephalitis (EAE), MOG 35-55 induced, neurological score; assay type: in vivo; settings: thrice a week
Protocol: Female C57BL/6 mice were injected subcutaneously into 4 sites on the back, adjacent to each of the forelimbs and hindlimbs (total amount 200 μl) with a myelin oligodendritic glycoprotein (MOG) 35-55 fragment emulsified with complete Freund's adjuvant. Thereafter, each animal was i.p. injected with pertusis toxin (PTX; 200 ng/mouse) in PBS and an additional
PTX injection was repeated 2 days later, which is a standard protocol for initiating experimental autoimmune encephalomyelitis (EAE) in mice. UBE polypeptide (SEQ ID NO:2) was intraperitoneally (i.p.) injected (0.3 μg/kg, thrice a week) five days after MOG immunization (day of onset of symptoms). The animals were evaluated for neurological score from 0 (no effect) to 6 (severe neurological symptoms including paralysis). Results are the mean±SE of neurological score (sum of all scores divided by the number of animals in each experimental group) at each of the indicated time intervals after MOG injection.
Female C57BL/6 mice were injected subcutaneously into 4 sites on the back, adjacent to each of the forelimbs and hindlimbs (total amount 200 μl) with a myelin oligodendritic glycoprotein (MOG) 35-55 fragment emulsified with complete Freund's adjuvant. Thereafter, each animal was i.p. injected with pertusis toxin (PTX; 200 ng/mouse) in PBS and an additional PTX injection was repeated 2 days later. Four days after MOG immunization, each mouse received i.p. injections (1 μg/kg, thrice a week) of each of the following polypeptides:
The animals were evaluated for neurological score from 0 (no effect) to 6 (severe neurological symptoms including paralysis). Results are the mean±SE of neurological score (sum of all scores divided by the number of animals in each experimental group) at each of the indicated time intervals after immunization.

female MRL/lpr mice = assay: Spontaneous lupus-like syndrome in MRL/lpr mice (Systemic Lupus Erythematosus model); assay type: in vivo
Protocol: MRL/lpr mice develop a lupus-like syndrome spontaneously. UBE (SEQ ID NO:2) (1 μg/kg) was administered to female MRL/lpr mice thrice a week, starting at age of 12 weeks. Urine was obtained by spontaneous urination and the levels of protein (mg/dl) and erythrocytes (cells/dl) in the urine were evaluated throughout the treatment period (4 weeks) using commercial sticks.
In order to determine the levels of anti-dsDNA antibodies, blood was obtained by cardiac puncture of the MRL/lpr mice after 4 weeks of UBE treatment, and the serum levels of anti-dsDNA antibodies were evaluated using a commercial ELISA kit.
Serum levels of anti-dsDNA antibodies were determined by ELISA with the aid of a commercial kit (Euroimmun, Lubeck, Germany) following the manufacturer's instructions and detection antibodies were purchased for use with same (Bethyl Laboratories, Montgomery, Tex., USA).
Quantitative histopathology analysis of the kidneys was also performed. The kidneys of the mice after 4 weeks of UBE treatment were removed, fixed in formalin, sliced, and stained by H&E and by periodic acid […] stain. Representative histophathologies of the glomeruli and tubulointerstitial areas in control versus UBE treated mice is shown FIGS. 7C and 7D, versus 7E and 7F at 2× and 20×, respectively. The quantitative histopathology analysis is presented in FIG. 7A and FIG. 7B, respectively.
To evaluate the effect of UBE on lymphocyte function in MRL/lpr mice, peripheral lymph nodes and spleen cells were isolated from the control and UBE-treated mice and subjected to FACS analysis probing for CD4, CD8 and B220 marker expression (FIG. 8). Peripheral lymph node cells were positively selected for CD3 expression and the percent of CD3+ cells, which were negative for CD4− and CD8− expression was evaluated. Representative results from control and UBE treated animals are shown in FIGS. 8A and 8B, respectively. […] Spleen cells were similarly evaluated and representative results from control and UBE treated animals are shown in FIGS. 8C and 8D, respectively.
In parallel, peripheral lymph node cells were positively selected for B220+ expression. Representative results from control and UBE treated animals are shown in FIGS. 8G and 8H, respectively. […] Spleen cells were similarly evaluated and representative results from control and UBE treated animals are shown in FIGS. 8I and 8J, respectively.

Female C57B1/6 mice = assay: LPS induced sepsis in mice, UBE i.v.; assay type: in vivo; settings: i.v. within 1 hour after LPS 1.2 mg/mouse; 48 hours after LPS; 0.1 and 1.0 μg/kg; FIG. 20B
Protocol: Female C57B1/6 mice 7-8 weeks of age were injected i.p with LPS 1.2 mg/mouse. Thereafter (within 1 hour) UBE peptide as depicted by SEQ ID NO: 2 was injected i.v. (100 μl) at different doses; control group received PBS. Survival of mice was monitored. n=10 for control group, n=9 for each UBE-treated group.

mice = assay: LPS induced sepsis in mice, second protocol, UBE i.p.; assay type: in vivo; settings: for survival of the mice treated: repeated after 24 hours, 50 hours post LPS injection, FIG. 20A
Protocol: In a second protocol, mice were injected i.p. with LPS (dissolved in saline solution) at a dose of 1.2 mg/mouse, followed by i.p. injection of UBE at a dose of 1.0 or 10.0 μg/kg after 30 minutes. UBE treatment was repeated after 24 hours (n=4 for UBE-treated groups and n=5 for controls).

Human CD4 cells = assay: Cytokine profile in human CD4+ cells activated with anti CD3 and anti CD28 antibodies (Multiplex); assay type: cell-based; settings: UBE 100 ng/ml, 72 hours
Protocol: Human CD4 cells were MACS separated from blood of healthy donors using the immunomagnetic separation system of Miltenyi, in accordance with manufacturer instructions. Cells were incubated (each well contained 0.5×106/0.5 ml) with human IL2 (100 U/ml) and human anti CD3 antibodies (1 ug/ml) and human anti CD28 antibodies (1 ug/ml) with or without UBE (100 ng/ml) for 72 hours in a CO2 (6%) incubator at 37° C. in multiwall plates. Thereafter plates were centrifuged and supernatants were collected and stored at −20° C. until cytokine analysis was conducted. Cytokines were determined by Multiplex system (BioRad). *p<0.02, **p<0.006 using students t-test for comparison between UBE-treated and control cells.

[1] = after 4 weeks of UBE treatment, 1 μg/kg, FIG. 7

Sequence: SMPPIVRFDHPFLFIIFEEHTQSPLFVGKVVDPTHK (listed as Mus musculus) [UBE, 36-mer peptide corresponding to residues 378-413 of Mus musculus alpha-1-antitrypsin (serpin a1c)]
- carrageenan-induced inflammation (hind paw swelling) (Male CD1 mice): significant reduction
- neurological symptoms (neurological score 0 to 6) (Female C57BL/6 mice; i.p. 0.3 μg/kg, from five days after MOG immunization, FIG. 2): reduced the neurological symptoms
- neurological symptoms (neurological score 0 to 6) (Female C57BL/6 mice; i.p. 1 μg/kg, from four days after MOG immunization, FIG. 3): reduced the neurological symptoms
- proteinuria (urinary protein) (female MRL/lpr mice; 1 μg/kg thrice a week from age of 12 weeks, 4 weeks, FIG. 4): significant reduction
- urinary microhematuria (female MRL/lpr mice; 1 μg/kg thrice a week from age of 12 weeks, 4 weeks, FIG. 5): significant reduction
- anti-dsDNA antibodies in the blood (serum, ELISA) (female MRL/lpr mice; after 4 weeks of UBE treatment, 1 μg/kg, FIG. 6): significant reduction
- pathological score of the glomeruli (kidney histopathology) (female MRL/lpr mice; [1]): significant reduction
- pathological score of the tubulointerstitial areas (kidney histopathology) (female MRL/lpr mice; [1]): significant reduction
- percent of B220+ cells, FACS (female MRL/lpr mice; peripheral lymph nodes): dramatically reduced
- double negative CD4−CD8− cells (expressed as percent CD3+), FACS (female MRL/lpr mice; peripheral lymph nodes, FIG. 8E): dramatically reduced
- percent of B220+ cells, FACS (female MRL/lpr mice; spleen cells): dramatically reduced
- double negative CD4−CD8− cells, FACS (female MRL/lpr mice; spleen cells, FIG. 8F): dramatically reduced
- reduction of LPS-induced mortality (Female C57B1/6 mice): 33%
- survival of the mice treated (mice; UBE 1.0 μg/kg i.p. 30 minutes after LPS): approximately 50%
- survival of the mice treated (mice; UBE 10 μg/kg i.p. 30 minutes after LPS): approximately 50%
- survival time as compared to controls (mice; both UBE dosages (1.0 and 10 μg/kg i.p.)): significantly prolonged survival
- inflammatory mediators overall (IL6, IL17A, IL21, IL22, IL23, IL31, IFNγ) (Human CD4 cells; FIG. 22A-G): overall trend in reduced inflammatory mediators
- IL22 production (Human CD4 cells; FIG. 22D): significantly reduced
- IL23 production (Human CD4 cells; FIG. 22E): significantly reduced
- IL31 production (Human CD4 cells; FIG. 22F): significantly reduced
